ChEMBL document CHEMBL1909046, “DrugMatrix in vitro pharmacology data”

Experiments:
Cannabinoid receptor 1 = Cannabinoid receptor 1 (Homo sapiens, UniProt P21554); type: cell membranes, Chem-1, Membrane; settings: chem-1; also: in other assays of this panel Not Active means under 50% inhibition at 10 µM
D(3) dopamine receptor = D(3) dopamine receptor (Homo sapiens, UniProt P35462); assay: DRUGMATRIX: Dopamine D3 radioligand binding (ligand: [3H] Spiperone); type: cell membranes, CHO, Membrane; settings: cho
[1] = DRUGMATRIX: Phorbol Ester radioligand binding (ligand: [3H] PDBu); type: cell membranes, Mus musculus, ICR, Brain, Membrane; settings: Not Active = under 50% inhibition at 10 µM
[2] = DRUGMATRIX: Phosphodiesterase PDE4 enzyme inhibition (substrate: [3H]cAMP + cAMP); settings: u-937; Not Active = under 50% inhibition at 10 µM
[3] = target: T1, Cholecystokinin receptor type A (Homo sapiens, UniProt P32238); type: cell membranes, Membrane; settings: 1321-n1; also: in other assays of this panel Not Active means under 50% inhibition at 10 µM
T1 sequence (P32238 whole entry): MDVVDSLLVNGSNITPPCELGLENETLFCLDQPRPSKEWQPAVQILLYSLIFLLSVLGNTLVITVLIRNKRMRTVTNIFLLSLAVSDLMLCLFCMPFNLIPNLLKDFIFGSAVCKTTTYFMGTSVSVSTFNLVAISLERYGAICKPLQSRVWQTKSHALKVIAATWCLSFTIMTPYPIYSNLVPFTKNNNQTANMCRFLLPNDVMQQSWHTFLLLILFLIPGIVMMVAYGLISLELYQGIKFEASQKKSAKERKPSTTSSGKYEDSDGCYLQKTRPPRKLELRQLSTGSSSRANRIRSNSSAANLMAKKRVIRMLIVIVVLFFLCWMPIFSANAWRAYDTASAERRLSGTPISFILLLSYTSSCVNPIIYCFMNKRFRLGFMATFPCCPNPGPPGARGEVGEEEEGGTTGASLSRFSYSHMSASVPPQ

Caspase-1 = target: T2, Caspase-1 (Homo sapiens, UniProt P29466); design: species or system Escherichia coli;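 also: Caspase-1 enzyme inhibition assay with a peptide substrate; in other assays of this panel Not Active means under 50% inhibition at 10 µM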
T2 sequence (P29466 whole entry): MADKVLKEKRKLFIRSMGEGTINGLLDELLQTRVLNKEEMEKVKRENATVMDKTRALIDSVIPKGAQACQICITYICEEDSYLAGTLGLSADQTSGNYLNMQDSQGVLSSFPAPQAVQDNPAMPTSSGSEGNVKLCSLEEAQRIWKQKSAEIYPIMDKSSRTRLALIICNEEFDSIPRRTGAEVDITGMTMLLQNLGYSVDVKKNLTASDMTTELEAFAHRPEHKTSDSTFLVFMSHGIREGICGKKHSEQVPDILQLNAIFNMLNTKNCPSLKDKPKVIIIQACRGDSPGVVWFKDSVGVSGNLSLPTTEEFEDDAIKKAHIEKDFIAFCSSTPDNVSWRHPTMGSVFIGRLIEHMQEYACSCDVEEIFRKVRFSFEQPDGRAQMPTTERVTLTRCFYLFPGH

Cytochrome P450 2A6 = target: T3, Cytochrome P450 2A6 (Homo sapiens, UniProt P11509); settings: bti-tn-5b1-4; also: in other assays of this panel Not Active means under 50% inhibition at 10 µM
T3 sequence (P11509 whole entry): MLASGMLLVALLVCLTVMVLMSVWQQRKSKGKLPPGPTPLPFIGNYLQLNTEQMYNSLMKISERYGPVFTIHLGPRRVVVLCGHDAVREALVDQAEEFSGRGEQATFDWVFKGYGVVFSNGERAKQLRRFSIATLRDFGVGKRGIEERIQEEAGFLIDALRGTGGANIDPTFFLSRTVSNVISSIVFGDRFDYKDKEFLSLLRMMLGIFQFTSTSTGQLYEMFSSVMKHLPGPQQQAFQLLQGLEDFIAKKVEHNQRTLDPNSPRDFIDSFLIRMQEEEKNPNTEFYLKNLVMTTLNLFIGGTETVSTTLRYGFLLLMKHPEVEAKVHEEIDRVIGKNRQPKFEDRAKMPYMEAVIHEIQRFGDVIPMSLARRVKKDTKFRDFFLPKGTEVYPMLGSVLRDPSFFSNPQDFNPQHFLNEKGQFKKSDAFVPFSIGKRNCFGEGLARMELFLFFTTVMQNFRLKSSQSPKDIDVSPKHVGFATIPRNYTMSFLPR

Cannabinoid receptor 1, sequence (P21554 whole entry): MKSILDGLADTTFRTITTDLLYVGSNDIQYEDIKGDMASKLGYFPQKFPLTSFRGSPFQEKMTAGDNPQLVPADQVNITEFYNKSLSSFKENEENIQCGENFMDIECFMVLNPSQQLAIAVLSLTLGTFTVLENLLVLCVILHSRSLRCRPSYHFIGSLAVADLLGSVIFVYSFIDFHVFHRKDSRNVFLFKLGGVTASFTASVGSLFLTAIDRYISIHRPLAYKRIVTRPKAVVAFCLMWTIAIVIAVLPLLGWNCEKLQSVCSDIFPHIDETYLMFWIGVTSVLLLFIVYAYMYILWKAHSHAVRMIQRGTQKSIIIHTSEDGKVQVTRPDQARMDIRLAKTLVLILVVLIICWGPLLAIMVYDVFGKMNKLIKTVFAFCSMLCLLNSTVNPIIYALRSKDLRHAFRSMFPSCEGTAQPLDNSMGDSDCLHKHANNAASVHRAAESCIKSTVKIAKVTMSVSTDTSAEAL
D(3) dopamine receptor, sequence (P35462 whole entry): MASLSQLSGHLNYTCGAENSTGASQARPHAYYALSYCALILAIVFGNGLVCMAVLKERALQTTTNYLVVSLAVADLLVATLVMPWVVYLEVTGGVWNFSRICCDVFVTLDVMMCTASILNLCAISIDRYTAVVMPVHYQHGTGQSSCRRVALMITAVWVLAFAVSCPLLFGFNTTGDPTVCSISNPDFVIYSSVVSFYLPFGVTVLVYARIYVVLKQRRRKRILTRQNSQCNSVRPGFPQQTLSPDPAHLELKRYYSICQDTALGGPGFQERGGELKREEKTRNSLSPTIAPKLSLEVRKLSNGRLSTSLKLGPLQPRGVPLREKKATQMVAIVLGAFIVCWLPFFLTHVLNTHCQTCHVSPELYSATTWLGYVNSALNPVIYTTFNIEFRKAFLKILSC

CADMIUM DICHLORIDE
Not Active: IC50 (Cannabinoid receptor 1) | Ki (Cannabinoid receptor 1) | IC50 (D(3) dopamine receptor) | Ki (D(3) dopamine receptor) | IC50 [1] | Ki [1] | IC50 [2] | Ki [2] | IC50 [3] | Ki [3] | IC50 (Caspase-1) | Ki (Caspase-1) | IC50 (Cytochrome P450 2A6) | Ki (Cytochrome P450 2A6)
